Molecular target: T1, 'L35' VvCYP76F14 (Vitis vinifera, UniProt A0A1B2ZBX8, S46N/I107T/K111N/Q175R/V222L/N286S/T325K/G378E/A380T/D383E/A386T)
T1 construct: 499-residue CDS, synthesized (GenScript), E. coli BL21(DE3); purification and tags not described; Arabidopsis CPR ATR1 as redox partner
Experiment: substrate remnant by UPLC-MS
Type: cell-based
Settings: Arabidopsis CPR ATR1 as redox partner; 26 °C, 1 h; recombinant E. coli protein, purification not described

T1 sequence (A0A1B2ZBX8 entry or part of it with the stated changes): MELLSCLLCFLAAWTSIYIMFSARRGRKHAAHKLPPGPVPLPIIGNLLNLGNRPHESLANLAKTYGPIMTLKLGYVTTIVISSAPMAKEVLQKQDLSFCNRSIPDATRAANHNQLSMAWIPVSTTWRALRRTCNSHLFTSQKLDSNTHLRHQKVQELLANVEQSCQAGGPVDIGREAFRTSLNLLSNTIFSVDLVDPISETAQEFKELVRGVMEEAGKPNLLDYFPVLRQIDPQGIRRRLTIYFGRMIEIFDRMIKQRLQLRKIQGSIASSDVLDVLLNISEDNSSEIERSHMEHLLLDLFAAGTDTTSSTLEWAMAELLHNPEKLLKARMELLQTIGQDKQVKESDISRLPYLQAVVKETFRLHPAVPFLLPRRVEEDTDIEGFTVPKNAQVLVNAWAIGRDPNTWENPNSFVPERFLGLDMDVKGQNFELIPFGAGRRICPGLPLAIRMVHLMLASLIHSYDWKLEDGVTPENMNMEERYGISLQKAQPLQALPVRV

Compound | substrate remnant by UPLC-MS
C=CC(C)(O)CC/C=C(\C)CO (centres unmarked) [(E)-8-hydroxylinalool] | ‘L35’ VvCYP76F14 exhibited lower remnants of linalool and (E)-8-hydroxylinalool substrates
C=CC(C)(O)CCC=C(C)C (centres unmarked) [linalool] | ‘L35’ VvCYP76F14 exhibited lower remnants of linalool and (E)-8-hydroxylinalool substrates
